# In US9409952B2, “Peptide-compound cyclization method” (Chugai Seiyaku Kabushiki Kaisha, priority 2011, dated 2016):
# Read-outs that look alike come from different tables or passages of the source. Starred links: 1 amine or outer side, 2 acyl side, 3 side chain; linkers in the order of their positions; H or OH if unused. Positions of bridges follow the written chain, without caps; N, C: chain ends. Non-standard residues stand in square brackets, D forms with d. Residues, ends and D or L forms follow the SMILES beside them. *: point of attachment. Ala(1H-tetrazol-5-yl) = N[C@@H](Cc1nnn[nH]1)C(=O)O; NMeF = CN[C@@H](Cc1ccccc1)C(=O)O; NMeGABA = CN(CCCC(=O)[*:2])[*:1]; NMeI = CC[C@H](C)[C@H](NC)C(=O)O; NMeL = CN[C@@H](CC(C)C)C(=O)O; NMeV = CN[C@H](C(=O)O)C(C)C; NMeA = CN[C@@H](C)C(=O)O; Piperidide = C1CCN(*)CC1; dNMeA = CN[C@H](C)C(=O)O; Sar = CNCC(=O)O; tBu = CC(C)(C)*
# Legend:
# [1] = Metabolic stability in human hepatic microsome; type: in vitro ADME; details: microsomes
# [2] = PAMPA (parallel artificial membrane permeability assay); type: in vitro ADME; details: PAMPA
# In short: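 Artificial membrane was 10% (w/v) egg lecithin plus 0.5% (w/v) cholesterol in dodecane on a PVDF filter. A 10 mM DMSO stock was added at 0.5% (v/v) to donor buffer (50 mM MOPSO, pH 6.5, 5.0% glycocholic acid). After 18 h at 37 °C, LC/MS or LC/UV gave donor and acceptor levels for Pe.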
# [3] = pH 7.4, human hepatic microsome, NADPH(+), read-out: CL NADPH(+)
# [4] = membrane permeation rate (Pe), 50 mM MOPSO buffer pH 6.5 with 5.0% glycocholic acid, 37° C., 18 hours, read-out: iPAMPA Pe
SMILES,"microsomal CLint at 1 uM [1, 3]","Papp at 18 hours, 50 µM [2, 4]","microsomal CLint at 1 uM ([1]; human, pH 7.4, CL NADPH(+))","Papp at 18 hours, 50 µM ([2]; pH 6.5)"
CC(C)C[C@@H]1NC(=O)CCCN(C)C(=O)C[C@@H](C(=O)N2CCCCC2)NC(=O)[C@H](Cc2ccccc2)N(C)C(=O)[C@H]([C@@H](C)O)NC(=O)[C@H](CC(C)C)N(C)C(=O)[C@H](COC(C)(C)C)NC1=O [DP-716] ([NMeGABA]LS(tBu)[NMeL]T[NMeF]D-Piperidide; lactam N-7),133 µL/min/mg,21 ×10⁻⁶ cm/s,,
CC(C)C[C@@H](C(=O)N[C@@H](C)C(=O)N1CCCCC1)N(C)C(=O)[C@@H]1CC(=O)N[C@H](C(C)C)C(=O)N[C@@H]([C@@H](C)O)C(=O)N(C)[C@@H](C)C(=O)N(C)[C@@H](Cc2ccccc2)C(=O)N(C)[C@@H](Cc2ccccc2)C(=O)N[C@@H](COC(C)(C)C)C(=O)N(C)[C@@H](CC(C)C)C(=O)NCC(=O)N1 [DP-575] ([dV]T[NMeA][NMeF][NMeF]S(tBu)[NMeL]GD[NMeL]A-Piperidide; lactam N-9),70 µL/min/mg,28 ×10⁻⁶ cm/s,,
CC(C)C[C@@H]1NC(=O)[C@H](C(C)C)N(C)C(=O)[C@H](C)N(C)C(=O)[C@H](Cc2ccccc2)N(C)C(=O)[C@H](Cc2ccccc2)NC(=O)[C@@H](C)N(C)C(=O)C[C@@H](C(=O)N2CCCCC2)NC(=O)[C@H]([C@@H](C)O)NC(=O)[C@H](C)N(C)C(=O)[C@H](C)N(C)C(=O)[C@H](C)NC(=O)CN(C)C1=O [DP-467] ([dNMeA]F[NMeF][NMeA][NMeV]L[Sar]A[NMeA][NMeA]TD-Piperidide; lactam N-12),12 µL/min/mg,1.5 ×10⁻⁶ cm/s,,
CC[C@H](C)[C@H]1C(=O)N[C@H](C(=O)N2CCCCC2)CC(=O)N[C@H](C(C)C)C(=O)N[C@@H]([C@@H](C)O)C(=O)N(C)CC(=O)N[C@@H](CC(C)C)C(=O)N2CCC[C@H]2C(=O)N(C)[C@@H](C(C)C)C(=O)N[C@@H](Cc2ccccc2)C(=O)N(C)[C@@H](Cc2ccccc2)C(=O)N(C)[C@@H](CC(C)C)C(=O)N[C@@H](C)C(=O)N1C [DP-56] ([dV]T[Sar]LP[NMeV]F[NMeF][NMeL]A[NMeI]D-Piperidide; lactam N-12),,,43 µL/min/mg,30 ×10⁻⁶ cm/s
CC[C@H](C)[C@H]1C(=O)N(C)[C@@H](C)C(=O)N(C)[C@@H](Cc2ccccc2)C(=O)N[C@@H]([C@@H](C)O)C(=O)N(C)[C@@H](Cc2ccccc2)C(=O)N(C)[C@@H](CC(C)C)C(=O)N2CCC[C@H]2C(=O)N[C@H](C(=O)N2CCCCC2)CC(=O)N[C@@H](C)C(=O)NCC(=O)N(C)[C@@H](CC(C)C)C(=O)N1C [DP-16] (AG[NMeL][NMeI][NMeA][NMeF]T[NMeF][NMeL]PD-Piperidide; lactam N-11),74 µL/min/mg,,,30 ×10⁻⁶ cm/s
CC(C)C[C@@H]1NC(=O)[C@H]([C@@H](C)O)NC(=O)[C@H](CC(C)C)N(C)C(=O)[C@H](Cc2ccccc2)N(C)C(=O)[C@H](C)N(C)C(=O)C[C@@H](C(=O)N2CCCCC2)NC(=O)[C@H](COC(C)(C)C)NC(=O)[C@H](CC(C)C)N(C)C1=O [DP-696] ([NMeA][NMeF][NMeL]TL[NMeL]S(tBu)D-Piperidide; lactam N-8),194 µL/min/mg,37 ×10⁻⁶ cm/s,,
CC(C)C[C@H]1NC(=O)[C@H](Cc2ccccc2)N(C)C(=O)[C@H](CC(C)C)N(C)C(=O)[C@H](C)NC(=O)[C@H](CC(C)C)N(C)C(=O)[C@H](Cc2ccccc2)N(C)C(=O)[C@H](Cc2nn[nH]n2)NC(=O)C[C@@H](C(=O)N2CCCCC2)NC(=O)[C@H](CC(C)C)N(C)C(=O)[C@H](CC(C)C)N(C)C1=O [DP-909] ([Ala(1H-tetrazol-5-yl)][NMeF][NMeL]A[NMeL][NMeF][dL][NMeL][NMeL]D-Piperidide; lactam N-10),15 µL/min/mg,12 ×10⁻⁶ cm/s,,
CC(C)C[C@H]1C(=O)N[C@@H]([C@@H](C)O)C(=O)N[C@H](C(=O)N(C)[C@@H](Cc2ccccc2)C(=O)N(C)[C@@H](Cc2ccccc2)C(=O)N[C@@H](C)C(=O)N2CCCCC2)CC(=O)N(C)CCCC(=O)N(C)[C@@H](C)C(=O)N(C)[C@@H](Cc2ccccc2)C(=O)N[C@@H](C(C)C)C(=O)N(C)[C@@H](CC(C)C)C(=O)N(C)CC(=O)N1C [DP-404] ([NMeGABA][NMeA][NMeF]V[NMeL][Sar][NMeL]TD[NMeF][NMeF]A-Piperidide; lactam N-9),107 µL/min/mg,20 ×10⁻⁶ cm/s,,
CC[C@H](C)[C@H]1C(=O)N(C)[C@@H](Cc2ccccc2)C(=O)NCC(=O)N[C@@H]([C@@H](C)O)C(=O)N[C@@H](Cc2ccccc2)C(=O)N(C)[C@@H](CC(C)C)C(=O)N2CCC[C@H]2C(=O)N[C@H](C(=O)N2CCCCC2)CC(=O)N[C@H](C)C(=O)N[C@@H](CC(C)C)C(=O)N(C)[C@@H](C)C(=O)N[C@@H](CC(C)C)C(=O)N1C [DP-54] ([dA]L[NMeA]L[NMeI][NMeF]GTF[NMeL]PD-Piperidide; lactam N-12),,,13 µL/min/mg,15 ×10⁻⁶ cm/s
CC(C)C[C@H]1C(=O)N[C@@H](COC(C)(C)C)C(=O)N[C@H](C(=O)N2CCCCC2)CC(=O)N[C@@H](C)C(=O)N(C)[C@@H](Cc2ccccc2)C(=O)N(C)CC(=O)N(C)[C@@H](Cc2ccccc2)C(=O)N[C@@H]([C@@H](C)O)C(=O)N1C [DP-711] (A[NMeF][Sar][NMeF]T[NMeL]S(tBu)D-Piperidide; lactam N-8),217 µL/min/mg,29 ×10⁻⁶ cm/s,,
